Read-outs that look alike come from different tables or passages of the source.
Experiments:
Drosophila suzukii [1] = format: in vivo; conditions: vial; for Statistical comparison of mortalities in words: second experiment, 7 days, log-rank pairwise comparisons (FIG. 3); for Mortality (%) of flies when fed different sugar formulations: Table 1, first experiment; for Mortality (%) of flies when fed different erythritol and sucralose formulations: Table 2, second experiment
Description: Materials and Methods. Flies and sugars: Drosophila suzukii used in these experiments were from a colony maintained at 22±5° C. under a photoperiod of L:D 16:8 h, and a relative humidity of 60±5% RH at the Horticultural Crops Research Unit, USDA ARS in Corvallis, Oreg. Wildtype flies collected from infested fruits in Corvallis, Oreg. were used to start the colony. Standard rearing methods and diet are described by Woltz, J. M., et al., Journal of Applied Entomology, 139:759-770 (2015). Newly emerged adult males and females were collected daily and maintained in cages with water and diet until they were specific ages for experimentation. Sugars used in this study, meso-erythritol (>99%), sucrose (>99%), and sucralose (>99%), were purchased from Fisher Scientific (Hampton, N.H.).
Different sugar formulations on the fly survivorship: Ten 5-day old flies (5 males and 5 females) were introduced into a plastic vial and given a tube (1.5 ml) containing different water-based solutions. Two combinations of erythritol (Ery) mixed with sucrose (Suc) or sucralose (Sul) were introduced to flies in a plastic vial for 7 days (FIG. 1). For the first experiment various pairs were tested (Table 1): Suc 0.5 M, Ery 0.5 M, Ery 1.5 M+Suc 0.5 M, and Ery 1.5 M+Suc 0.1 M. For the second experiment various pairs were tested (Table 2): Suc 0.5 M, Ery 0.5 M, Sul 0.5 M, Sul 0.1 M, Ery 1.5 M+Sul 0.5 M, Ery 1.5 M+Sul 0.1 M, Ery 2.0 M+Sul 0.1 M, and Ery 2.0 M+Sul 0.01 M. Survivorship of flies was checked daily for 7 days. Each pair per experiment was replicated at least three times.

Drosophila suzukii [2] = assay: Fly mortality in the cage experiment; format: in vivo; conditions: 7 days (FIG. 7)
Description: Materials and Methods. Flies and sugars: Drosophila suzukii used in these experiments were from a colony maintained at 22±5° C. under a photoperiod of L:D 16:8 h, and a relative humidity of 60±5% RH at the Horticultural Crops Research Unit, USDA ARS in Corvallis, Oreg. Wildtype flies collected from infested fruits in Corvallis, Oreg. were used to start the colony. Standard rearing methods and diet are described by Woltz, J. M., et al., Journal of Applied Entomology, 139:759-770 (2015). Newly emerged adult males and females were collected daily and maintained in cages with water and diet until they were specific ages for experimentation. […] Effect of erythritol formulations with sucrose or sucralose on fly mortality in the cage experiment: Two combinations of erythritol (Ery) mixed with sucrose (Suc) or sucralose (Sul) were introduced to ten flies in a cage (25 cm wide×25 cm deep×28 cm height) for 7 days (FIG. 6). […] The cage experiment shared similar results with both the vial and cup experiments (FIG. 2, FIG. 5, FIG. 7). In summary, the erythritol/sucralose formulation will not affect human health. The erythritol/sucralose formulation can be directly applied as an insecticide for insects such as Drosophila suzukii. […] The formulations can be used as a phagostimulant with conventional or biological insecticides. […]

SMILES: OC[C@@H](O)[C@@H](O)CO [Erythritol (Ery) 0.5M, meso-erythritol]
- Statistical comparison of mortalities in words (Drosophila suzukii [1]): statistically the same values
- Statistical comparison of results in words (Drosophila suzukii [2]): statistically similar

SMILES: OC[C@H]1O[C@H](O[C@]2(CCl)O[C@H](CCl)[C@@H](O)[C@@H]2O)[C@H](O)[C@@H](O)[C@H]1Cl [Sucralose (Sul) 0.5M, sucralose]
- Statistical comparison of mortalities in words (Drosophila suzukii [1]): statistically the same effect

SMILES: OC[C@H]1O[C@@](CO)(O[C@H]2O[C@H](CO)[C@@H](O)[C@H](O)[C@H]2O)[C@@H](O)[C@@H]1O [Sucrose (Suc) 0.5M, sucrose]
- Mortality (%) of flies when fed different sugar formulations (Drosophila suzukii [1]; Day1): 1.3%
- Mortality (%) of flies when fed different sugar formulations (Drosophila suzukii [1]; Day2): 1.3%
- Mortality (%) of flies when fed different sugar formulations (Drosophila suzukii [1]; Day3): 3.8%
- Mortality (%) of flies when fed different sugar formulations (Drosophila suzukii [1]; Day4): 5.0%
- Mortality (%) of flies when fed different sugar formulations (Drosophila suzukii [1]; Day5): 5.0%
- Mortality (%) of flies when fed different sugar formulations (Drosophila suzukii [1]; Day6): 6.3%
- Mortality (%) of flies when fed different sugar formulations (Drosophila suzukii [1]; Day7): 11.3%
- Mortality (%) of flies when fed different erythritol and sucralose formulations (Drosophila suzukii [1]; Day 1): 0.0%
- Mortality (%) of flies when fed different erythritol and sucralose formulations (Drosophila suzukii [1]; Day 2): 2.5%
- Mortality (%) of flies when fed different erythritol and sucralose formulations (Drosophila suzukii [1]; Day 3): 2.5%
- Mortality (%) of flies when fed different erythritol and sucralose formulations (Drosophila suzukii [1]; Day 4): 2.5%
- Mortality (%) of flies when fed different erythritol and sucralose formulations (Drosophila suzukii [1]; Day 5): 5.0%
- Mortality (%) of flies when fed different erythritol and sucralose formulations (Drosophila suzukii [1]; Day 6): 5.0%
- Mortality (%) of flies when fed different erythritol and sucralose formulations (Drosophila suzukii [1]; Day 7): 6.3%

SMILES: OC[C@H]1O[C@H](O[C@]2(CCl)O[C@H](CCl)[C@@H](O)[C@@H]2O)[C@H](O)[C@@H](O)[C@H]1Cl [Sul 0.1M, sucralose]
- Statistical comparison of mortalities in words (Drosophila suzukii [1]): statistically the same effect

From US11083195B2, “Insecticidal compositions and methods to kill insects” (priority 2019, dated 2021)
